“Also recorded” adds a separate entry of the source.
Legend:
Type in all cases: in vivo
[1] = tested on: scPCP+ARS(2h) treated male C57BL/6J mice; test: 10-min social interaction test in scPCP-treated mice given 2 h acute restraint stress (treatment-resistant model); conditions: for Able to restore sniffing or decrease avoidance (SI deficit), drug alone: risperidone 0.2, olanzapine 1, aripiprazole 1 or pimavanserin 3 mg/kg ip alone, 45 min prior to test
Protocol: (§1) Briefly, mice were habituated to the test arena (i.e., the NOR box) for 30 minutes prior to the test day. Pairs of mice, unfamiliar to each other, received either the same treatment (e.g., vehicle and vehicle; N=10 pairs) or different treatments (e.g., vehicle; N=10 and phencyclidine (PCP) 10 mg/kg; N=10). After washout, they were placed in the test arena together for 10 minutes. A heavy object made of Plexiglas or metal was placed in the center of the test arena to quantify the time and nature of interaction of the test animals with an unfamiliar object or an unfamiliar animal. After the 10 min test phase, the object and the arena were cleaned with 70% ethanol to remove any olfactory trails. Behavior was recorded on video for subsequent blind scoring.
(§2) The following four behaviors were scored for each animal: • a) Sniffing: A normal mouse engages in sniffing the con-specific mouse's body, including the anogenital area • b) Following: A normal mouse pursues a con-specific mouse around the arena • c) Avoiding: A normal mouse avoids the con-specific mouse and move away from a pursuing mouse if approached • d) Object Exploration: A normal mouse explores the object that is placed in the center of the test arena.
Acute restraint stress (ARS) protocol: Mice were assigned to one of two groups: either the control group (non-stress) or the stress group. Generally, mice of the stress group were restrained in well-ventilated 50 mL tubes. After the restraint period of 1 or 2 hours, the mice were transferred into a clean animal housing cage for 1-hour interval and thereafter went through the first social interaction test (different mice are used to test different groups).
Treatment resistant animal model: To establish this model, Acute restraint stress (ARS) was added to scPCP treatment. Two groups (vehicle+ARS; scPCP+ARS) and their controls (vehicle+saline; scPCP+saline) were used. ARS was applied for 1 or 2 hours and tested on SI 1 hour post-ARS.
(§3) The behavioral assay, ARS protocol, and scPCP-treatment as described in Example 2 were used. To test the effect of atypical APD and pimavanserin, alone or as con-administration, in scPCP-treated mice (N=10 pairs of mice per group) given 2 h ARS, risperidone (“Risp”) was administered as 0.2 mg/kg or 0.4 mg/kg ip; olanzapine (“Olan”) as 1.0 mg/kg ip; aripiprazole (“Aripi”) as 1.0 mg/kg ip; and pimavanserin (“Pim”) as 3 mg/kg ip to scPCP+ARS(2h) treated male C57BL/6J mice 45 minutes prior to the commencement of the social interaction task in the 10 min social interaction test. Plasma levels of risperidone were measured using a Triple Quad 6500+ mass spectrometer.

[2] = Plasma levels of risperidone in scPCP and ARS-treated mice (mass spectrometer)
Protocol: as §3

[3] = tested on: scPCP-treated C57BL/6J mice; test: 10-min social interaction test in scPCP-treated mice; conditions: 45 min prior to test
Protocol: Negative symptoms model: The behavioral assay utilized to assess negative symptoms was social interaction (SI) task.
as §1, §2
scPCP treatment involved intraperitoneal injection (ip) of 10 mg/kg PCP to male C57BL/6J mice, twice daily (bid) for 7 days, followed by 7 days washout. To test the effect of atypical APD or pimavanserin in scPCP-treated mice (N=10 pairs of mice per group), risperidone was administered as 0.05 mg/kg ip or 0.2 mg/kg ip; and pimavanserin was administered as 3 mg/kg ip or 6 mg/kg ip to scPCP-treated mice 45 minutes prior to the commencement of the social interaction task in the 10 min social interaction test.

| Structure (SMILES) | Able to restore sniffing or decrease avoidance (SI deficit), drug alone [1] | Effect on SI deficit, doubled dose ([1]; risperidone 0.4 mg/kg ip) | Plasma levels of risperidone ([2]; 0.2 mg/kg risperidone group) | Plasma levels of risperidone ([2]; 0.2 mg/kg risperidone plus 3 mg/kg pimavanserin group) | Plasma levels of risperidone ([2]; 0.4 mg/kg risperidone group) | SI deficit produced by scPCP: time exploring the conspecific mouse ([3]; risperidone 0.05 mg/kg ip) | SI deficit produced by scPCP: time exploring the conspecific mouse ([3]; risperidone 0.2 mg/kg ip) |
| --- | --- | --- | --- | --- | --- | --- | --- |
| O=C1CCc2ccc(OCCCCN3CCN(c4cccc(Cl)c4Cl)CC3)cc2N1 [aripiprazole] | Neither | – | – | – | – | – | – |
| Cc1nc2n(c(=O)c1CCN1CCC(c3noc4cc(F)ccc34)CC1)CCCC2 [risperidone] | Neither; also recorded: ineffective | ineffective | 5.4±0.1 | 5.3±0.6 | 8.0±3.3 | sub-effective | spent more time exploring the conspecific mouse |

Source: patent US20220288048A1, “PIMAVANSERIN FOR TREATING SCHIZOPHRENIA OR FOR TREATING PSYCHOSIS SECONDARY TO NEURODEGENERATIVE DISORDERS OR DEPRESSIVE DISORDER” (ACADIA Pharmaceuticals Inc., priority 2019, published 2022)
